Some test systems named below: BT-549; DU-145; EKVX; HCT-116; HCT-15; HOP-92; KM12; LOX IMVI; NCI-H226; OVCAR-3; RXF 393; SF-539; SK-MEL-28; SK-MEL-2; TK-10; U-251; UACC-257; UACC-62; COLO 205; MDA-N.
What all share (assay): inhibition of tumour cell growth, NCI panel, 48 h

Results on twelve compounds are retold here after ChEMBL document CHEMBL1201862, “PubChem BioAssay data set” (2004).

Molecules are shown by their SMILES.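 A five-concentration, 48-hour dose response in 96-well plates underlies each endpoint, interpolated linearly between surrounding concentrations. GI50: concentration for 50% inhibition of growth.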 Calls of active or inactive are those of the source. No stated cut-off is given here; in the data, active = GI50 up to about 1.1 µM and inactive = higher. A value given as a limit tells only on which side of the number the result lay.

Take `COc1ccc(OC)c([N+](=O)[O-])c1-c1nc2sc(C)cn2c1/C=N/N=C(N)N`: the GI50 with BT-549 is 15.2 µM (inactive); in the test with DU-145 it was 30.3 µM (inactive); in the test on EKVX, 82.2 µM (inactive); in the test on HCT-116, 39.5 µM (inactive); in the test with HCT-15 it was above 100 µM; with HOP-92, 17.5 µM (inactive). Further, the GI50 was 20.5 µM (inactive) with KM12; 70.1 µM (inactive) with LOX IMVI; 36.1 µM (inactive) with NCI-H226; 28.9 µM (inactive) in the test on OVCAR-3; 28.2 µM (inactive) with RXF 393; 38.4 µM (inactive) with SF-539. For the same compound, the GI50 in the test on SK-MEL-28 was 21.4 µM (inactive); in the test on SK-MEL-2, 21.5 µM (inactive); in the test with TK-10, 20.6 µM (inactive); with U-251 it was 31.6 µM (inactive); in the test on UACC-257 it was 18 µM (inactive); with UACC-62, 22.7 µM (inactive).

In the case of `COc1ccc(OC)c(C#Cc2ccc(OC)c(C(=O)NCCc3ccc(F)cc3)c2)c1`, the GI50 is > 100 µM (inactive) in the test with BT-549; 5.22 µM (inactive) in the test with COLO 205; > 100 µM (inactive) in the test on EKVX; 4.45 µM in the test on HCT-15; 4.13 µM (inactive) with KM12; > 100 µM (inactive) with LOX IMVI. Also, the GI50 in the test on SK-MEL-28 is 1.73 µM (inactive); in the test on SK-MEL-2, 5.05 µM (inactive); with TK-10, > 100 µM (inactive); with U-251 it was 6.07 µM (inactive); with UACC-257, > 100 µM (inactive).

Consider `Cc1[nH]c2ccccc2c1C1=CC(=O)N(c2ccccc2)C1=O`, for which the GI50 is 5.31 µM (inactive) in the test on BT-549; 17.7 µM (inactive) with COLO 205; 4.74 µM (inactive) in the test on DU-145; 16.8 µM (inactive) with EKVX; 8.75 µM (inactive) in the test with HCT-116; 7.76 µM in the test on HCT-15. The GI50 in the test on HOP-92 was 7.74 µM (inactive); in the test on LOX IMVI it was 5.55 µM (inactive); in the test with NCI-H226, 19 µM (inactive); in the test with OVCAR-3, 9.53 µM (inactive); in the test with RXF 393 it was 6.67 µM (inactive); in the test with SF-539, 10.8 µM (inactive). Besides, the GI50 is 6.46 µM (inactive) in the test with SK-MEL-28; 13.6 µM (inactive) in the test on SK-MEL-2; 11.1 µM (inactive) in the test with TK-10; 17.3 µM (inactive) in the test with U-251; 13.1 µM (inactive) with UACC-257; 9.82 µM (inactive) in the test on UACC-62.

Take `O=[N+]([O-])C(C(Cl)=C(Cl)Cl)=C(n1cncn1)n1cncn1`: the GI50 in the test with BT-549 is 18.7 µM (inactive); in the test on COLO 205, 13.7 µM (inactive); in the test on DU-145, 16.5 µM (inactive); with EKVX it was 24.3 µM (inactive); with HCT-116, 16.1 µM (inactive); with HCT-15 it was 17.8 µM. Moreover, the GI50 was 50.4 µM (inactive) with KM12; 17.7 µM (inactive) in the test on LOX IMVI; > 100 µM (inactive) with NCI-H226; 18.2 µM (inactive) in the test on OVCAR-3; 14.6 µM (inactive) in the test on RXF 393; 19 µM (inactive) with SF-539. The GI50 with SK-MEL-28 is 32.6 µM (inactive); in the test with SK-MEL-2 it was > 100 µM (inactive); with TK-10 it was 25.7 µM (inactive); in the test with U-251 it was 34.6 µM (inactive); in the test on UACC-257, 31.3 µM (inactive); with UACC-62, 39.9 µM (inactive).

As for `CC(C)/C=N\N1C(N)=C(C#N)C(C#N)(C#N)C1C(C)C` (stereo not given), the GI50 in the test with BT-549 was 35.2 µM (inactive); with COLO 205, 48.1 µM (inactive); in the test with DU-145, 40 µM (inactive); with EKVX it was > 100 µM (inactive); in the test on HCT-116, 47.9 µM (inactive); in the test with HCT-15 it was 32.7 µM. Also, the GI50 with KM12 was 44.6 µM (inactive); with LOX IMVI, 31.8 µM (inactive); in the test on MDA-N, 22.4 µM (inactive); in the test on NCI-H226 it was 55.6 µM (inactive); in the test with OVCAR-3 it was 48.2 µM (inactive); with RXF 393, 17.2 µM (inactive). Further, the GI50 was 22.7 µM (inactive) with SF-539; 47 µM (inactive) with SK-MEL-28; 67.3 µM (inactive) in the test on SK-MEL-2; > 100 µM (inactive) in the test on TK-10; 39.6 µM (inactive) with U-251; 47.5 µM (inactive) with UACC-257. Besides, the GI50 in the test on UACC-62 was 26.4 µM (inactive).

For the compound `COc1ccc(OC2OC(COC(c3ccccc3)(c3ccc(OC)cc3)c3ccc(OC)cc3)C(O)C(O)C2O)cc1` (stereo not given), the GI50 with BT-549 is 12.5 µM (inactive); with COLO 205, 3.85 µM (inactive); with DU-145 it was 21.3 µM (inactive); in the test on EKVX it was 4.7 µM (inactive); in the test on HCT-116 it was 3.26 µM (inactive); with HCT-15, 2.86 µM. In addition, the GI50 is 3.55 µM (inactive) with KM12; 1.8 µM (inactive) in the test on LOX IMVI; 4.37 µM (inactive) with MDA-N; 12.3 µM (inactive) with NCI-H226; 4.21 µM (inactive) in the test with OVCAR-3; 4.42 µM (inactive) with SF-539. In addition, the GI50 is 2.41 µM (inactive) in the test with SK-MEL-28; 2.61 µM (inactive) in the test with SK-MEL-2; 5.33 µM (inactive) with TK-10; 3.6 µM (inactive) in the test with U-251; 6.64 µM (inactive) in the test on UACC-257; 3.43 µM (inactive) in the test with UACC-62.

Turning to `CC(NS(C)(=O)=O)c1ccccc1` (stereo not given), the GI50 in the test on BT-549 was > 100 µM (inactive); with COLO 205, > 100 µM (inactive); with DU-145, > 100 µM (inactive); in the test with HCT-116, > 100 µM (inactive); in the test with HCT-15, above 100 µM; in the test with KM12 it was > 100 µM (inactive). The GI50 in the test with LOX IMVI, with MDA-N, in the test on NCI-H226, in the test on OVCAR-3, in the test with RXF 393 and in the test with SF-539 was > 100 µM (inactive) each time. Besides, the GI50 in the test on SK-MEL-28, with SK-MEL-2, in the test with TK-10, with U-251, in the test on UACC-257 and in the test on UACC-62 was > 100 µM (inactive) in each case.

With `O=[N+]([O-])c1ccc(C2Nn3c(nnc3-c3cccc([N+](=O)[O-])c3)S2)cc1` (stereo not given), the GI50 in the test on BT-549 is > 100 µM (inactive); in the test with COLO 205, > 100 µM (inactive); with DU-145 it was > 100 µM (inactive); with EKVX, > 100 µM (inactive); in the test on HCT-116 it was 67.6 µM (inactive); in the test on HCT-15, above 100 µM. Moreover, the GI50 in the test with HOP-92 was > 100 µM (inactive); with KM12 it was > 100 µM (inactive); in the test with LOX IMVI it was 82 µM (inactive); in the test on NCI-H226, 0.0735 µM (active); with OVCAR-3, > 100 µM (inactive); in the test on RXF 393, > 100 µM (inactive). The GI50 in the test on SF-539 was 9.08 µM (inactive); in the test with SK-MEL-2 it was 66.7 µM (inactive); in the test with TK-10, > 100 µM (inactive); in the test on U-251, > 100 µM (inactive); in the test with UACC-257 it was > 100 µM (inactive); in the test on UACC-62, > 100 µM (inactive).

Turning to `NCCCCNCCCN1CCOC1=O`, the GI50 is > 100 µM (inactive) with BT-549; > 100 µM (inactive) with COLO 205; > 100 µM (inactive) with DU-145; > 100 µM (inactive) in the test on EKVX; > 100 µM (inactive) in the test with HCT-116; above 100 µM with HCT-15. The GI50 in the test with KM12, in the test with LOX IMVI, in the test with MDA-N, in the test on NCI-H226, with OVCAR-3 and in the test with SF-539 was > 100 µM (inactive) throughout. The GI50 is > 100 µM (inactive) in the test on SK-MEL-28; > 100 µM (inactive) in the test on SK-MEL-2; 70.8 µM (inactive) in the test with TK-10; > 100 µM (inactive) with U-251; > 100 µM (inactive) in the test on UACC-257; > 100 µM (inactive) in the test with UACC-62.

For `OCCN(C1=NCCN1)/[N+](=C/c1ccc(Cl)cc1)[CH-]c1ccc(Cl)cc1`, the GI50 in the test on BT-549 is > 100 µM (inactive); in the test with COLO 205, 62.4 µM (inactive); with EKVX, > 100 µM (inactive); in the test on HCT-116, 95.5 µM (inactive); in the test on HCT-15, 61.8 µM; in the test with KM12 it was > 100 µM (inactive). Besides, the GI50 is 51.6 µM (inactive) in the test with LOX IMVI; > 100 µM (inactive) in the test with MDA-N; > 100 µM (inactive) with NCI-H226; > 100 µM (inactive) in the test on OVCAR-3; 15.5 µM (inactive) in the test on RXF 393; > 100 µM (inactive) in the test on SF-539. Also, the GI50 in the test on SK-MEL-28 is > 100 µM (inactive); with SK-MEL-2, 27.1 µM (inactive); in the test with TK-10, > 100 µM (inactive); in the test on U-251, > 100 µM (inactive); in the test with UACC-257, > 100 µM (inactive); in the test on UACC-62 it was > 100 µM (inactive).

Take `COc1cc2c3c(n(C)c(=O)c2cc1OC)-c1cc2c(cc1/C3=C\CCCCCBr)OCO2`: the GI50 was 93.1 µM (inactive) with BT-549; 47.3 µM (inactive) with COLO 205; 22.3 µM (inactive) with EKVX; 21.3 µM in the test with HCT-15; 4.52 µM (inactive) with HOP-92; 31.9 µM (inactive) with KM12. The GI50 in the test on LOX IMVI was 3.01 µM (inactive); in the test with MDA-N, 34.8 µM (inactive); in the test on SK-MEL-28, 0.115 µM (active); in the test with SK-MEL-2, 32.2 µM (inactive); with TK-10, 20.6 µM (inactive); in the test on U-251 it was 3.51 µM (inactive). Besides, the GI50 in the test with UACC-257 was 25.1 µM (inactive).

Turning to `CC(=O)O[C@@]12CO[C@@H]1CC(O)[C@@]1(C)C(=O)[C@H](O)C3=C(C)C(O)C[C@@](O)(C(OC(=O)c4ccccc4)C12)C3(C)C` (stereo not given in full), the GI50 with BT-549 is 1.26 µM (inactive); in the test with COLO 205 it was 0.434 µM (active); with DU-145, 3.35 µM (inactive); in the test with EKVX it was 5.62 µM (inactive); with HCT-116, 0.371 µM (active); in the test with HCT-15, 24.7 µM. In addition, the GI50 in the test with HOP-92 is 22.6 µM (inactive); in the test on KM12, 0.558 µM (active); in the test with LOX IMVI, 0.839 µM (active); in the test on NCI-H226, > 100 µM (inactive); with OVCAR-3, 0.454 µM (active); in the test on RXF 393 it was 25 µM (inactive). Further, the GI50 was 0.415 µM (active) in the test on SF-539; 0.367 µM (active) in the test with SK-MEL-2; 8.51 µM (inactive) in the test on TK-10; 0.828 µM (active) in the test with U-251; 0.684 µM (active) in the test with UACC-257; 0.508 µM (active) with UACC-62.
